Legend:
[1] = logP by reversed-phase HPLC (EEC Directive 79/831 Annex V.A8); type: physicochemical; conditions: acetonitrile gradient; for logP: HPLC, reversed-phase C 18, 43° C., acidic range a): 0.1% aqueous phosphoric acid; for chromatographic logP: reversed-phase C18 HPLC column; HPLC, reversed-phase C 18, 43° C., acidic range a): 0.1% aqueous phosphoric acid
Method: The logP values given in Table 1 were determined in accordance with EEC Directive 79/831 Annex V.A8 by HPLC (High Performance Liquid Chromatography) using a reversed-phase column (C 18). Temperature: 43° C.
(a) Mobile phase for the determination in the acidic range: 0.1% aqueous phosphoric acid, acetonitrile; linear gradient from 10% acetonitrile to 90% acetonitrile—the corresponding data in Table 1 are labelled^a).
Calibration was carried out using unbranched alkan-2-ones (having from 3 to 16 carbon atoms) with known logP values (the logP values were determined using the retention times, by linear interpolation between two successive alkanones).

Amaranthus [2] = experiment: Post-emergence test B-1 / greenhouse; type: in vivo; conditions: 500 g of ai./ha, rated after three weeks, 0% = no effect, 100% = total destruction
Method: (§1) To produce a suitable preparation of active compound, 1 part by weight of active compound is mixed with the stated amount of solvent, the stated amount of emulsifier is added and the concentrate is diluted with water to the desired concentration.
(§2) Test plants of a height of 5-15 cm are sprayed with the preparation of active compound such that the particular amounts of active compound desired are applied per unit area. The concentration of the spray liquor is chosen so that the particular amounts of active compound desired are applied in 1000 l of water/ha.
(§3) After three weeks, the degree of damage to the plants is rated in % damage in comparison to the development of the untreated control.
(§4) 0%=no effect (like untreated control)

Setaria = experiment: Post-emergence test B-1 / greenhouse; type: in vivo; conditions: 500 g of ai./ha, rated after three weeks, 0% = no effect, 100% = total destruction
Method: as §1, §2, §3, §4

Sinapis = experiment: Post-emergence test B-1 / greenhouse; type: in vivo; conditions: 500 g of ai./ha, rated after three weeks, 0% = no effect, 100% = total destruction
Method: as §1, §2, §3, §4

Xanthium = experiment: Post-emergence test B-1 / greenhouse; type: in vivo; conditions: 500 g of ai./ha, rated after three weeks, 0% = no effect, 100% = total destruction
Method: as §1, §2, §3, §4

weeds [3] = experiment: Post-emergence test B-1; type: in vivo; conditions: post-emergence test B-1, in words
Method: as §1, §2, §3, §4

[4] = system: Echinocloa crus galli, Setaria viridis, Amaranthus lividus and Polygonum blumei MEISSN; experiment: Post-emergence test B-2; type: in vivo; conditions: post-emergence test B-2, plants in 2-leaf stage, rated after three weeks, in words
Method: as §1
Test plants (Echinocloa crus galli, Setaria viridis, Amaranthus lividus and Polygonum blumei MEISSN) which, on average, are in the 2-leaf stage, are sprayed with the preparation of active compound such that the particular amounts of active compound desired are applied per unit area.
as §3, §4

Abutilon [5] = experiment: Pre-emergence test A-1 / greenhouse; type: in vivo; conditions: 500 g of ai./ha, rated after three weeks, 0% = no effect, 100% = total destruction
Method: as §1
(§5) Seeds of the test plants are sown in normal soil. After about 24 hours, the soil is sprayed with the preparation of active compound such that the particular amount of active compound desired is applied per unit area. The concentration of the spray liquor is chosen so that the particular amount of active compound desired is applied in 1000 litres of water per hectare.
as §3, §4

Amaranthus [6] = experiment: Pre-emergence test A-1 / greenhouse; type: in vivo; conditions: 500 g of ai./ha, rated after three weeks, 0% = no effect, 100% = total destruction
Method: as §1, §5, §3, §4

Maize [7] = experiment: Pre-emergence test A-1 / greenhouse; type: in vivo
Method: as §1, §5, §3, §4

weeds [8] = experiment: Pre-emergence test A-1; type: in vivo; conditions: pre-emergence test A-1, in words
Method: as §1, §5, §3, §4

[9] = system: Echinocloa crus galli, Setaria viridis, Amaranthus lividus and Polygonum blumei MEISSN; experiment: Pre-emergence test A-2; type: in vivo; conditions: pre-emergence test A-2, rated after four weeks, in words
Method: as §1
Seeds of the test plants (Echinocloa crus galli, Setaria viridis, Amaranthus lividus and Polygonum blumei MEISSN) are sown in normal soil. The soil is sprayed with the preparation of active compound such that the particular amount of active compound desired is applied per unit area.
After four weeks, the degree of damage to the plants is rated in % damage in comparison to the development of the untreated controls.
as §4

Abutilon [10] = experiment: Post-emergence test B-1 / greenhouse; type: in vivo; conditions: 500 g of ai./ha, rated after three weeks, 0% = no effect, 100% = total destruction
Method: as §1, §2, §3, §4

Maize [11] = experiment: Post-emergence test B-1 / greenhouse; type: in vivo; conditions: 500 g of ai./ha, rated after three weeks, 0% = no effect, 100% = total destruction
Method: as §1, §2, §3, §4

Row | Molecule | logP [1] | % damage, Amaranthus (Amaranthus [2]) | % damage, Setaria (Setaria) | % damage, Sinapis (Sinapis) | action against weeds (weeds [3]) | also measured
1 | CCC(=O)Nc1nc(N[C@@H](C)C2CCCCC2)nc(C(C)(C)F)n1 [Example 22] | logP = 3.26^a) (S enantiomer) |  |  |  |  | 
2 | CCC(=O)Nc1nc(NC(C)C2CCCCC2)nc(C(F)(F)Cl)n1 (racemic) [Example 8] | logP = 4.23^a) (racemate) | 100% | 100% | 100% | strong action | % damage, Xanthium (Xanthium): 100%
3 | CC(C)CC(C)Nc1nc(N)nc(C(C)(C)F)n1 (racemic) [Example 29] |  |  |  |  |  | action against the abovementioned weeds [4]: strong action
4 | CC(Nc1nc(N)nc(C(F)(F)Cl)n1)C1CCCCC1 (racemic) [Example 6] | logP = 3.51^a) (racemate) | 100% | 100% | 100% | strong action | % damage, Xanthium (Xanthium): 100%
5 | C[C@H](Nc1nc(N)nc([C@@H](C)F)n1)C1CCCCC1 [Example 1, (R,S)-N′-(1-cyclohexyl-ethyl)-6-(1-fluoro-ethyl)-1,3,5-triazine-2,4-diamine] |  | 100% | 100% | 100% | strong action | chromatographic logP [1]: 1.83; % damage, Abutilon (Abutilon [5]): 80%; % damage, Amaranthus (Amaranthus [6]): 100%; tolerance by crop plants, such as maize (Maize [7]; pre-emergence test A-1, in words): tolerated very well; % damage, Maize (Maize [7]; pre-emergence, 500 g of ai./ha, rated after three weeks, 0% = no effect, 100% = total destruction): 0%; action against weeds (weeds [8]): strong action; % damage, Xanthium (Xanthium): 100%
6 | CCC(=O)Nc1nc(N[C@H](C)C2CCCCC2)nc(C(C)F)n1 (stereo partly shown) [Example 15] | logP = 3.11^a) (R enantiomer) |  |  |  |  | 
7 | CC(Nc1nc(N)nc(C(C)(C)F)n1)C1CCCCC1 (racemic) [Example 7] | logP = 1.93^a) (racemate) | 100% | 100% | 100% | strong action | % damage, Xanthium (Xanthium): 100%
8 | CC(C)CCCC(C)Nc1nc(N)nc(C(C)(C)F)n1 (racemic) [Example 31] |  |  |  |  |  | action against the abovementioned weeds [4]: strong action
9 | CCC(=O)Nc1nc(N[C@@H](C)C2CCCCC2)nc(C(Cl)Cl)n1 [Example 23] | logP = 2.93^a) (S enantiomer) |  |  |  |  | 
10 | N-(1-ethylpropyl)-6-(1-fluoro-1-methylethyl)-1,3,5-triazine-2,4-diamine [Example 4] |  | 100% | 100% | 100% | strong action | % damage, Xanthium (Xanthium): 100%
11 | CCC(CC)Nc1nc(NC(C)=O)nc(C(C)(C)F)n1 [Example 34] |  |  |  |  |  | action against the abovementioned weeds [9]: strong action
12 | CCC(CC)Nc1nc(N)nc(C(C)(C)F)n1 [Example 33] |  |  |  |  |  | action against the abovementioned weeds [9]: strong action
13 | CCC(=O)Nc1nc(N[C@@H](C)C2CCCCC2)nc([C@@H](C)F)n1 [Example 2, (R,S)-N-[4-(1-cyclohexyl-ethylamino)-6-(1-fluoro-ethyl)-1,3,5-triazin-2-yl]-propionamide] |  | 100% | 100% | 100% | strong action | chromatographic logP [1]: 3.14; % damage, Xanthium (Xanthium): 100%
14 | CCCC(C)Nc1nc(N)nc(C(C)(C)F)n1 (racemic) [Example 28] |  |  |  |  |  | action against the abovementioned weeds [4]: strong action
15 | CCC(=O)Nc1nc(N[C@H](C)C2CCCCC2)nc(C(C)(C)F)n1 [Example 16] | logP = 3.25^a) (R enantiomer) |  |  |  |  | 
16 | N-acetyl-N′-(1-ethylpropyl)-6-(1-fluoro-1-methylethyl)-1,3,5-triazine-2,4-diamine [Example 5] |  | 100% | 95% | 95% | strong action | % damage, Abutilon (Abutilon [10]): 90%
17 | CCC(CC)Nc1nc(N)nc(C(C)F)n1 (racemic) [Example 32] |  |  |  |  |  | action against the abovementioned weeds [9]: strong action
18 | C[C@H](Nc1nc(NC=O)nc([C@@H](C)F)n1)C1CCCCC1 [Example 3, (R,S)-N-[4-(1-cyclohexyl-ethylamino)-6-(1-fluoro-ethyl)-1,3,5-triazin-2-yl]-formamide] |  | 100% | 100% | 100% | strong action | chromatographic logP [1]: 3.04; % damage, Abutilon (Abutilon [10]): 90%; melting point: 127 °C
19 | CCC(=O)Nc1nc(N[C@H](C)C2CCCCC2)nc(C(Cl)Cl)n1 [Example 17] | logP = 2.93^a) (R enantiomer) |  |  |  |  | 
20 | CCC(=O)Nc1nc(N[C@@H](C)C2CCCCC2)nc(C(C)F)n1 (stereo partly shown) [Example 21] | logP = 3.11^a) (S enantiomer) |  |  |  |  | 
21 | CCC(=O)Nc1nc(NC(C)C2CCCCC2)nc(C(C)(C)F)n1 (racemic) [Example 9] | logP = 3.30^a) (racemate) | 95% | 90% | 100% | strong action | % damage, Maize (Maize [11]): 30%

Reference: patent US6645915B1, “Substituted 1,3,5- triazines” (Nihon Bayer Agrochem K. K., priority 1998, dated 2003)
